Measurements: patent US12077503B2, “Substituted cyclic amides and their use as herbicides” (FMC CORPORATION, priority 2015, dated 2024)

Tests used:
Format in all cases: in vivo
[1] = system: velvetleaf (Abutilon theophrasti); test: Test G Post-Emergence Protocol
Summary of the method: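 Post-emergence herbicidal damage, scored visually 0–100 at 13 days. Application at 15.625, 62.5 or 250 g/ha onto 8-day-old plants grown under glasshouse control.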

[2] = system: Galium (catchweed bedstraw, Galium aparine); test: Test C preemergence; conditions: scale 0 to 100, 0 no effect, 100 complete control
Summary of the method: (§1)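 After treatment with surfactant-containing formulations, either preemergence to seeds in loam-sand soil or postemergence to potted seedlings at 2–18 cm, plants were kept 13–15 d in a greenhouse. Observers then compared them with controls and assigned ratings, 0 signifying no effect and 100 complete control.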

[3] = system: barnyardgrass (Echinochloa crus-galli); test: Test C preemergence; conditions: scale 0 to 100, 0 no effect, 100 complete control
Summary of the method: as §1

[4] = system: blackgrass (Alopecurus myosuroides); test: Test C preemergence; conditions: scale 0 to 100, 0 no effect, 100 complete control
Summary of the method: as §1

corn (Zea mays) = test: Test C preemergence; conditions: scale 0 to 100, 0 no effect, 100 complete control
Summary of the method: as §1

[5] = system: crabgrass, large (large crabgrass, Digitaria sanguinalis); test: Test C preemergence; conditions: scale 0 to 100, 0 no effect, 100 complete control
Summary of the method: as §1

[6] = system: johnsongrass (Sorghum halepense); test: Test C preemergence; conditions: scale 0 to 100, 0 no effect, 100 complete control
Summary of the method: as §1

[7] = system: morningglory (Ipomoea coccinea); test: Test C preemergence; conditions: scale 0 to 100, 0 no effect, 100 complete control
Summary of the method: as §1

[8] = system: nutsedge, yellow (yellow nutsedge, Cyperus esculentus); test: Test C preemergence; conditions: scale 0 to 100, 0 no effect, 100 complete control
Summary of the method: as §1

[9] = system: oilseed rape (Brassica napus); test: Test C preemergence; conditions: scale 0 to 100, 0 no effect, 100 complete control
Summary of the method: as §1

[10] = system: pigweed (Amaranthus retroflexus); test: Test C preemergence; conditions: scale 0 to 100, 0 no effect, 100 complete control
Summary of the method: as §1

[11] = system: ragweed (common ragweed, Ambrosia elatior); test: Test C preemergence; conditions: scale 0 to 100, 0 no effect, 100 complete control
Summary of the method: as §1

[12] = system: ryegrass, Italian (Italian ryegrass, Lolium multiflorum); test: Test C preemergence; conditions: scale 0 to 100, 0 no effect, 100 complete control
Summary of the method: as §1

soybean (Glycine max) = test: Test C preemergence; conditions: scale 0 to 100, 0 no effect, 100 complete control
Summary of the method: as §1

[13] = system: velvetleaf (Abutilon theophrasti); test: Test C preemergence; conditions: scale 0 to 100, 0 no effect, 100 complete control
Summary of the method: as §1

[14] = system: waterhemp (common waterhemp, Amaranthus rudis); test: Test C preemergence; conditions: scale 0 to 100, 0 no effect, 100 complete control
Summary of the method: as §1

[15] = system: wheat (winter wheat, Triticum aestivum); test: Test C preemergence; conditions: scale 0 to 100, 0 no effect, 100 complete control
Summary of the method: as §1

Compound: CN1C[C@H](c2cccc(C(F)(F)F)c2)[C@@H](C(=O)Nc2cccnc2F)C1=O [Compound 1397]
- pest or weed control at 15.625 g/ha ([1]; Abutilon theophrasti, post-emergence, 312 h, 15.625 g ai/ha, evaluated after 13 days (100=total damage to plant; 0=no damage to plant), read-out: Velvetleaf damage rating): 0%
- pest or weed control at 62.5 g/ha ([1]; Abutilon theophrasti, post-emergence, 312 h, 62.5 g ai/ha, evaluated after 13 days, read-out: Velvetleaf damage rating (100=total damage to plant; 0=no damage to plant)): 10%
- pest or weed control at 250 g/ha ([1]; Abutilon theophrasti, post-emergence, 312 h, 250 g ai/ha, evaluated after 13 days, read-out: damage to plant, Velvetleaf (100=total damage to plant; 0=no damage to plant)): 40%

Compound: CN1C[C@H](c2ccc(C(F)(F)F)cc2)[C@@H](C(=O)Nc2cccc(F)n2)C1=O [Compound 1400]
- Velvetleaf damage rating ([1]; 15.625 g ai/ha, evaluated after 13 days (100=total damage to plant; 0=no damage to plant)): 10
- Velvetleaf damage rating (100=total damage to plant; 0=no damage to plant) ([1]; 62.5 g ai/ha, evaluated after 13 days): 10
- damage to plant, Velvetleaf (100=total damage to plant; 0=no damage to plant) ([1]; 250 g ai/ha, evaluated after 13 days): 30

Compound: CN1CC(c2cccc(OC(F)(F)C(F)F)c2)C(C(=O)Nc2ccc(F)c(F)c2F)C1=O (stereo not shown) [Compound 429]
- Plant response rating, Galium ([2]; 31 g ai/ha): 100
- Plant response rating, Galium ([2]; 62 g ai/ha): 100
- Plant response rating, Galium ([2]; 125 g ai/ha): 100
- Plant response rating, Galium ([2]; 250 g ai/ha): 100
- Plant response rating, Barnyardgrass ([3]; 31 g ai/ha): 85
- Plant response rating, Barnyardgrass ([3]; 62 g ai/ha): 95
- Plant response rating, Barnyardgrass ([3]; 125 g ai/ha): 95
- Plant response rating, Barnyardgrass ([3]; 250 g ai/ha): 98
- Plant response rating, Blackgrass ([4]; 31 g ai/ha): 70
- Plant response rating, Blackgrass ([4]; 62 g ai/ha): 90
- Plant response rating, Blackgrass ([4]; 125 g ai/ha): 90
- Plant response rating, Blackgrass ([4]; 250 g ai/ha): 95
- Plant response rating, Corn (corn (Zea mays); 31 g ai/ha): 0
- Plant response rating, Corn (corn (Zea mays); 62 g ai/ha): 40
- Plant response rating, Corn (corn (Zea mays); 125 g ai/ha): 65
- Plant response rating, Corn (corn (Zea mays); 250 g ai/ha): 90
- Plant response rating, Crabgrass, Large ([5]; 31 g ai/ha): 95
- Plant response rating, Crabgrass, Large ([5]; 62 g ai/ha): 98
- Plant response rating, Crabgrass, Large ([5]; 125 g ai/ha): 98
- Plant response rating, Crabgrass, Large ([5]; 250 g ai/ha): 98
- Plant response rating, Johnsongrass ([6]; 31 g ai/ha): 75
- Plant response rating, Johnsongrass ([6]; 62 g ai/ha): 95
- Plant response rating, Johnsongrass ([6]; 125 g ai/ha): 95
- Plant response rating, Johnsongrass ([6]; 250 g ai/ha): 90
- Plant response rating, Morningglory ([7]; 31 g ai/ha): 35
- Plant response rating, Morningglory ([7]; 62 g ai/ha): 30
- Plant response rating, Morningglory ([7]; 125 g ai/ha): 20
- Plant response rating, Morningglory ([7]; 250 g ai/ha): 60
- Plant response rating, Nutsedge, Yellow ([8]; 31 g ai/ha): 0
- Plant response rating, Nutsedge, Yellow ([8]; 62 g ai/ha): 0
- Plant response rating, Nutsedge, Yellow ([8]; 125 g ai/ha): 0
- Plant response rating, Nutsedge, Yellow ([8]; 250 g ai/ha): 0
- Plant response rating, Oilseed Rape ([9]; 31 g ai/ha): 80
- Plant response rating, Oilseed Rape ([9]; 62 g ai/ha): 80
- Plant response rating, Oilseed Rape ([9]; 125 g ai/ha): 90
- Plant response rating, Oilseed Rape ([9]; 250 g ai/ha): 90
- Plant response rating, Pigweed ([10]; 31 g ai/ha): 75
- Plant response rating, Pigweed ([10]; 62 g ai/ha): 85
- Plant response rating, Pigweed ([10]; 125 g ai/ha): 90
- Plant response rating, Pigweed ([10]; 250 g ai/ha): 100
- Plant response rating, Ragweed ([11]; 31 g ai/ha): 0
- Plant response rating, Ragweed ([11]; 62 g ai/ha): 40
- Plant response rating, Ragweed ([11]; 125 g ai/ha): 75
- Plant response rating, Ragweed ([11]; 250 g ai/ha): 75
- Plant response rating, Ryegrass, Italian ([12]; 62 g ai/ha): 85
- Plant response rating, Ryegrass, Italian ([12]; 125 g ai/ha): 85
- Plant response rating, Ryegrass, Italian ([12]; 250 g ai/ha): 65
- Plant response rating, Soybean (soybean (Glycine max); 125 g ai/ha): 0
- Plant response rating, Soybean (soybean (Glycine max); 250 g ai/ha): 10
- Plant response rating, Velvetleaf ([13]; 62 g ai/ha): 40
- Plant response rating, Velvetleaf ([13]; 125 g ai/ha): 30
- Plant response rating, Velvetleaf ([13]; 250 g ai/ha): 45
- Plant response rating, Waterhemp ([14]; 62 g ai/ha): 85
- Plant response rating, Waterhemp ([14]; 125 g ai/ha): 90
- Plant response rating, Waterhemp ([14]; 250 g ai/ha): 90
- Plant response rating, Wheat ([15]; 62 g ai/ha): 60
- Plant response rating, Wheat ([15]; 125 g ai/ha): 70
- Plant response rating, Wheat ([15]; 250 g ai/ha): 60

Compound: CN1CC(c2cccc(OC(F)(F)C(F)F)c2)C(C(=O)Nc2ccccc2C(F)(F)F)C1=O (stereo not shown) [Compound 431]
- Plant response rating, Galium ([2]; 31 g ai/ha): 95
- Plant response rating, Galium ([2]; 62 g ai/ha): 90
- Plant response rating, Galium ([2]; 125 g ai/ha): 100
- Plant response rating, Galium ([2]; 250 g ai/ha): 90
- Plant response rating, Barnyardgrass ([3]; 31 g ai/ha): 90
- Plant response rating, Barnyardgrass ([3]; 62 g ai/ha): 95
- Plant response rating, Barnyardgrass ([3]; 125 g ai/ha): 95
- Plant response rating, Barnyardgrass ([3]; 250 g ai/ha): 98
- Plant response rating, Blackgrass ([4]; 31 g ai/ha): 60
- Plant response rating, Blackgrass ([4]; 62 g ai/ha): 85
- Plant response rating, Blackgrass ([4]; 125 g ai/ha): 90
- Plant response rating, Blackgrass ([4]; 250 g ai/ha): 98
- Plant response rating, Corn (corn (Zea mays); 31 g ai/ha): 0
- Plant response rating, Corn (corn (Zea mays); 62 g ai/ha): 35
- Plant response rating, Corn (corn (Zea mays); 125 g ai/ha): 50
- Plant response rating, Corn (corn (Zea mays); 250 g ai/ha): 65
- Plant response rating, Crabgrass, Large ([5]; 31 g ai/ha): 98
- Plant response rating, Crabgrass, Large ([5]; 62 g ai/ha): 100
- Plant response rating, Crabgrass, Large ([5]; 125 g ai/ha): 100
- Plant response rating, Crabgrass, Large ([5]; 250 g ai/ha): 100
- Plant response rating, Johnsongrass ([6]; 31 g ai/ha): 70
- Plant response rating, Johnsongrass ([6]; 62 g ai/ha): 75
- Plant response rating, Johnsongrass ([6]; 125 g ai/ha): 85
- Plant response rating, Johnsongrass ([6]; 250 g ai/ha): 90
- Plant response rating, Morningglory ([7]; 31 g ai/ha): 0
- Plant response rating, Morningglory ([7]; 62 g ai/ha): 10
- Plant response rating, Morningglory ([7]; 125 g ai/ha): 10
- Plant response rating, Morningglory ([7]; 250 g ai/ha): 10
- Plant response rating, Nutsedge, Yellow ([8]; 31 g ai/ha): 0
- Plant response rating, Nutsedge, Yellow ([8]; 62 g ai/ha): 0
- Plant response rating, Nutsedge, Yellow ([8]; 125 g ai/ha): 0
- Plant response rating, Nutsedge, Yellow ([8]; 250 g ai/ha): 0
- Plant response rating, Oilseed Rape ([9]; 31 g ai/ha): 10
- Plant response rating, Oilseed Rape ([9]; 62 g ai/ha): 60
- Plant response rating, Oilseed Rape ([9]; 125 g ai/ha): 85
- Plant response rating, Oilseed Rape ([9]; 250 g ai/ha): 90
- Plant response rating, Pigweed ([10]; 31 g ai/ha): 40
- Plant response rating, Pigweed ([10]; 62 g ai/ha): 60
- Plant response rating, Pigweed ([10]; 125 g ai/ha): 75
- Plant response rating, Pigweed ([10]; 250 g ai/ha): 85
- Plant response rating, Ragweed ([11]; 31 g ai/ha): 50
- Plant response rating, Ragweed ([11]; 62 g ai/ha): 40
- Plant response rating, Ragweed ([11]; 125 g ai/ha): 40
- Plant response rating, Ragweed ([11]; 250 g ai/ha): 60
- Plant response rating, Ryegrass, Italian ([12]; 62 g ai/ha): 10
- Plant response rating, Ryegrass, Italian ([12]; 125 g ai/ha): 15
- Plant response rating, Ryegrass, Italian ([12]; 250 g ai/ha): 70
- Plant response rating, Soybean (soybean (Glycine max); 125 g ai/ha): 0
- Plant response rating, Velvetleaf ([13]; 62 g ai/ha): 25
- Plant response rating, Velvetleaf ([13]; 125 g ai/ha): 40
- Plant response rating, Velvetleaf ([13]; 250 g ai/ha): 30
- Plant response rating, Waterhemp ([14]; 62 g ai/ha): 75
- Plant response rating, Waterhemp ([14]; 125 g ai/ha): 85
- Plant response rating, Waterhemp ([14]; 250 g ai/ha): 90
- Plant response rating, Wheat ([15]; 62 g ai/ha): 5
- Plant response rating, Wheat ([15]; 125 g ai/ha): 70
- Plant response rating, Wheat ([15]; 250 g ai/ha): 90
